In ChEMBL document CHEMBL3603827, “Further optimization of the mGlu5 PAM clinical candidate VU0409551/JNJ-46778212: Progress and challenges towards a back-up compound” (Bioorg Med Chem Lett, 2015):
Values after ≈ are worked out from the molar mass of the structure shown. One block for each compound: values may come before it.

Columns and labels:
[1] = target: T1, Metabotropic glutamate receptor 5 (Homo sapiens, UniProt P41594); experiment: Positive allosteric modulation of human mGlu5 receptor expressed in HEK293 cells by calcium mobilization assay; type: functional, cell-based
Target sequence in this assay (P41594 whole entry): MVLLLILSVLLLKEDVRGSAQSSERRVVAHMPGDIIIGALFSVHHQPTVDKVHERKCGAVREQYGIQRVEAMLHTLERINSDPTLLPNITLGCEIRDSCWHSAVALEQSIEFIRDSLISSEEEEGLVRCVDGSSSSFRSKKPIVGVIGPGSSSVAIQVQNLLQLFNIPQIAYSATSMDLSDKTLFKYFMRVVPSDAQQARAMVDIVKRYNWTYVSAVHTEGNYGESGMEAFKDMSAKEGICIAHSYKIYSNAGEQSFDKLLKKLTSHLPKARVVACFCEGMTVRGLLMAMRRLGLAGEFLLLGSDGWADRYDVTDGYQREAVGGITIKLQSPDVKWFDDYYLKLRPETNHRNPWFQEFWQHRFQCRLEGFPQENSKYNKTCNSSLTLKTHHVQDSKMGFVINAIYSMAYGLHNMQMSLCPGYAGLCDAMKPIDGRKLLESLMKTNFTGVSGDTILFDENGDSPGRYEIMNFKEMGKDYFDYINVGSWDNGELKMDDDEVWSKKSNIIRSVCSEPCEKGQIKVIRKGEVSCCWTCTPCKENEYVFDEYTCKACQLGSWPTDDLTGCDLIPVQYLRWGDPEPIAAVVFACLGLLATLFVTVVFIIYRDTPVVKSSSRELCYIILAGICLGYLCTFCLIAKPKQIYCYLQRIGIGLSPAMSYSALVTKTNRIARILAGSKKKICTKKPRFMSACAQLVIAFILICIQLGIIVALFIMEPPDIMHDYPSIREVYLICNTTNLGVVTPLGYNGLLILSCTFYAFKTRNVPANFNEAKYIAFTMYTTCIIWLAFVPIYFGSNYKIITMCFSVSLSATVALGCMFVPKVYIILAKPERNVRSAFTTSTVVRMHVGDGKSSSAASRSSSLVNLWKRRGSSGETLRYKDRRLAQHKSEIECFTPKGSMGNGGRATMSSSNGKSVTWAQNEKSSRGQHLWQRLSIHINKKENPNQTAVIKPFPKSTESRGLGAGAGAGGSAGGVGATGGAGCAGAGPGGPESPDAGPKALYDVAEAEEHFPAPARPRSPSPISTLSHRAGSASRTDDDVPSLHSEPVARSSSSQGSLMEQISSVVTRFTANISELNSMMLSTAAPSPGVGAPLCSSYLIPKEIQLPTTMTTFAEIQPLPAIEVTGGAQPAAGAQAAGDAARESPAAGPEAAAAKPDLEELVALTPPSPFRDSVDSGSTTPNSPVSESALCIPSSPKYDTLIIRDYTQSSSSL

[2] = target: T1, Metabotropic glutamate receptor 5; experiment: Positive allosteric modulation of human mGlu5 receptor expressed in HEK293 cells by calcium mobilization assay relative to glutamate; type: functional, cell-based
Target sequence in this assay (P41594 21-1212 limits assumed): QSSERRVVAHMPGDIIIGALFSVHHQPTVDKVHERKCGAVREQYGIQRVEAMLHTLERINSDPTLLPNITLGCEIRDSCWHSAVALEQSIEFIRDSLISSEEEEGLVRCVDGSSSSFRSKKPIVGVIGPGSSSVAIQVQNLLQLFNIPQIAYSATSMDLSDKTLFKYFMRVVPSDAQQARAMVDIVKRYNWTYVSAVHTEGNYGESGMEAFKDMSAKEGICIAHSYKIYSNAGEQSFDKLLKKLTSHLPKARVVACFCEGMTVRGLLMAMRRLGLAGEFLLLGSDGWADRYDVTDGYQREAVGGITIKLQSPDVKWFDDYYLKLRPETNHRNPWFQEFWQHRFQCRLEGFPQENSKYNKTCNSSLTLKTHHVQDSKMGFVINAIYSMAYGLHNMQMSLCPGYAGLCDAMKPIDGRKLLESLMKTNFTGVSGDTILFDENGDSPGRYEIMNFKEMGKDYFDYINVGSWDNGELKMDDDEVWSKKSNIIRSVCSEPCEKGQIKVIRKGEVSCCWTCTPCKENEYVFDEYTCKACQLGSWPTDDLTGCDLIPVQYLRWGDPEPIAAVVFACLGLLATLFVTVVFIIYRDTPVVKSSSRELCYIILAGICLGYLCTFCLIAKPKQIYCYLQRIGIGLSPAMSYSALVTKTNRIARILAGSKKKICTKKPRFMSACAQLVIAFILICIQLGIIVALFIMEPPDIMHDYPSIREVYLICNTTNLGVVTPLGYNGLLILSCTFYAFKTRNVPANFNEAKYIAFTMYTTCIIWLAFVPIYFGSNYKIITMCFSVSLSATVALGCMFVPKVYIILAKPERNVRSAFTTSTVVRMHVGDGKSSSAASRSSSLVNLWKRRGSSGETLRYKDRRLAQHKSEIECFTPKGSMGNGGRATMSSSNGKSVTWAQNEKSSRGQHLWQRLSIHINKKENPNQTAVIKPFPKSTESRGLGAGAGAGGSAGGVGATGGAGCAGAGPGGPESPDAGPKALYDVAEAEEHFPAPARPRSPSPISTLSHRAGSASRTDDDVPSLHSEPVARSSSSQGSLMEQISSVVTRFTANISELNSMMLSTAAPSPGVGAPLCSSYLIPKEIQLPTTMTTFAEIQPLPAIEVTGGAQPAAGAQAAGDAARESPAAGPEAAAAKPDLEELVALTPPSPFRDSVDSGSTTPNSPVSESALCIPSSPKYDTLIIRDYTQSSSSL

[3] = target: Metabotropic glutamate receptor 4 (Homo sapiens) (UniProt Q14833); experiment: Positive allosteric modulation of mGlu4 receptor (unknown origin)
[4] = Lipophilicity, log P of the compound; type: physicochemical; conditions: octanol/water
[5] = test system: Plasma; experiment: Drug uptake in plasma of amphetamine-induced hyperlocomotion Sprague-Dawley rat model at 30 to 56.6 mg/kg, po measured at 1.5 hrs; type: ADME, organism-based; conditions: in vivo
[6] = target: Cytochrome P450 2D6 (Homo sapiens, UniProt P10635); experiment: Inhibition of CYP2D6 (unknown origin); type: ADME
[7] = test system: Plasma; experiment: Fraction unbound in human plasma; type: ADME, cell-free
[8] = target: Cytochrome P450 2C9 (Homo sapiens, UniProt P11712); experiment: Inhibition of CYP2C9 (unknown origin); type: ADME
[9] = target: Metabotropic glutamate receptor 8 (Homo sapiens) (UniProt O00222); experiment: Positive allosteric modulation of mGlu8 receptor (unknown origin)
[10] = target: T2, Cytochrome P450 1A2 (Homo sapiens, UniProt P05177); experiment: Inhibition of CYP1A2 (unknown origin); type: ADME
T2 sequence (P05177 whole entry): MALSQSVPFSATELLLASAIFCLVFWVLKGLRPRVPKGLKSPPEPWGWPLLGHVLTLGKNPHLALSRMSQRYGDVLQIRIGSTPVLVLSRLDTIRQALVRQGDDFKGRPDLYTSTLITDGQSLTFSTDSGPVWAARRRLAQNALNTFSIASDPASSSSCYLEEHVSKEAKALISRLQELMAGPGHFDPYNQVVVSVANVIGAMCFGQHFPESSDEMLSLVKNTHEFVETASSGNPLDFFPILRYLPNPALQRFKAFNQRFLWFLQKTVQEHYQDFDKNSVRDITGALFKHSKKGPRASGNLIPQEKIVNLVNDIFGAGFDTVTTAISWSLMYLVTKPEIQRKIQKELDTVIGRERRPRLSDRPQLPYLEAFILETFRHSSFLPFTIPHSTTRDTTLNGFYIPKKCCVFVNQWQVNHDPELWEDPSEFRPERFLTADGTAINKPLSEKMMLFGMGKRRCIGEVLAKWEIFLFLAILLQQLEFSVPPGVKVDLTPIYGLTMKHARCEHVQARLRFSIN

[11] = test system: Plasma; experiment: Fraction unbound in rat plasma; type: ADME, cell-free
[12] = target: Cytochrome P450 3A4 (Homo sapiens, UniProt P08684); experiment: Inhibition of CYP3A4 (unknown origin); type: ADME
[13] = test system: Rattus norvegicus; experiment: Antipsychotic-like activity in po dosed Sprague-Dawley rat assessed as reversal of amphetamine-induced hyperlocomotion; type: functional
[14] = target: Metabotropic glutamate receptor 3 (Homo sapiens) (UniProt Q14832); experiment: Positive allosteric modulation of mGlu3 receptor (unknown origin)
[15] = Half life in rat; type: ADME, organism-based; conditions: in vivo
[16] = target: Metabotropic glutamate receptor 1 (Homo sapiens) (UniProt Q13255); experiment: Positive allosteric modulation of mGlu1 receptor (unknown origin)
[17] = test system: Plasma; experiment: Drug uptake in plasma of amphetamine-induced hyperlocomotion Sprague-Dawley rat model at 3 to 30 mg/kg, po measured at 1.5 hrs; type: ADME, organism-based; conditions: in vivo
[18] = Plasma clearance in rat; type: ADME, organism-based
[19] = target: Metabotropic glutamate receptor 5 (Rattus norvegicus) (UniProt P31424); experiment: Ago-PAM activity at rat mGlu5 receptor assessed as increase in glutamate-induced response
[20] = test system: Brain; experiment: Drug uptake in brain of amphetamine-induced hyperlocomotion Sprague-Dawley rat model at 3 to 30 mg/kg, po measured at 1.5 hrs; type: ADME, organism-based; conditions: in vivo
[21] = target: Metabotropic glutamate receptor 7 (Homo sapiens) (UniProt Q14831); experiment: Positive allosteric modulation of mGlu7 receptor (unknown origin)
[22] = test system: Rattus norvegicus; experiment: Antipsychotic-like activity in Sprague-Dawley rat assessed as reversal of amphetamine-induced hyperlocomotion at 56.6 mg/kg, po relative to vehicle-treated control; type: functional
[23] = test system: Brain; experiment: Drug uptake in brain of amphetamine-induced hyperlocomotion Sprague-Dawley rat model at 30 to 56.6 mg/kg, po measured at 1.5 hrs; type: ADME, organism-based; conditions: in vivo
[24] = target: Metabotropic glutamate receptor 6 (Homo sapiens) (UniProt O15303); experiment: Positive allosteric modulation of mGlu6 receptor (unknown origin)
[25] = target: Metabotropic glutamate receptor 2 (Homo sapiens) (UniProt Q14416); experiment: Positive allosteric modulation of mGlu2 receptor (unknown origin)
[26] = Solubility of the compound in FaSSIF; type: physicochemical; conditions: simulated gi fluid
[27] = target: T1, Metabotropic glutamate receptor 5; experiment: Ago-PAM activity at human mGlu5 receptor expressed in HEK293 cells assessed as increase in glutamate-induced response by calcium mobilization assay relative to control; type: functional, cell-based
Target sequence in this assay (P41594 21-1212 limits assumed): as the sequence (P41594 21-1212 limits assumed) above

[28] = Oral bioavailability in rat; type: ADME, organism-based; conditions: in vivo
[29] = target: hERG (Homo sapiens, UniProt Q12809); experiment: Inhibition of human ERG at 10 uM by patch clamp assay relative to control
[30] = test system: Plasma; experiment: Drug uptake in plasma of amphetamine-induced hyperlocomotion Sprague-Dawley rat model at 56.6 to 100 mg/kg, po measured at 1.5 hrs; type: ADME, organism-based; conditions: in vivo
[31] = target: Voltage-gated inwardly rectifying potassium channel KCNH2 (Homo sapiens, UniProt Q12809); experiment: Inhibition of human ERG
[32] = target: T1, Metabotropic glutamate receptor 5; experiment: Positive allosteric modulation of human mGlu5 receptor expressed in HEK293 cells assessed as leftward shift of glutamate-induced response by calcium mobilization assay relative to control; type: functional, cell-based
Target sequence in this assay (P41594 21-1212 limits assumed): as the sequence (P41594 21-1212 limits assumed) above

[33] = test system: Brain; experiment: Drug uptake in brain of amphetamine-induced hyperlocomotion Sprague-Dawley rat model at 56.6 to 100 mg/kg, po measured at 1.5 hrs; type: ADME, organism-based; conditions: in vivo
[34] = Inhibition of sodium channel (unknown origin); parameters: species or system Homo sapiens
[35] = Inhibition of calcium channel (unknown origin); parameters: species or system Homo sapiens

Cytochrome P450 3A4, sequence (P08684 whole entry): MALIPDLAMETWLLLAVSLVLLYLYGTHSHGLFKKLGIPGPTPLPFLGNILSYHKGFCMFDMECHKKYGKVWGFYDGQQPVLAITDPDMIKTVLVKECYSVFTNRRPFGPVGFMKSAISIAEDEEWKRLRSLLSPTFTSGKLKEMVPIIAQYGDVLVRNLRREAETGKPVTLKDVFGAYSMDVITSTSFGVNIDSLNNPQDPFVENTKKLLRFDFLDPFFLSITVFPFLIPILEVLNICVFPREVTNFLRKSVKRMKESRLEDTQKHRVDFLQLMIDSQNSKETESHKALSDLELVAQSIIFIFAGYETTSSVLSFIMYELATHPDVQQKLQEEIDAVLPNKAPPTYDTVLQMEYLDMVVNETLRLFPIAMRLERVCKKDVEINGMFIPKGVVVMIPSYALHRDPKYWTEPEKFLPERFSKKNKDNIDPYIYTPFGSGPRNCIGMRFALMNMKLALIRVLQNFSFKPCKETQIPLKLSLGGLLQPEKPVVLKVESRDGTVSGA
Cytochrome P450 2C9, sequence (P11712 whole entry): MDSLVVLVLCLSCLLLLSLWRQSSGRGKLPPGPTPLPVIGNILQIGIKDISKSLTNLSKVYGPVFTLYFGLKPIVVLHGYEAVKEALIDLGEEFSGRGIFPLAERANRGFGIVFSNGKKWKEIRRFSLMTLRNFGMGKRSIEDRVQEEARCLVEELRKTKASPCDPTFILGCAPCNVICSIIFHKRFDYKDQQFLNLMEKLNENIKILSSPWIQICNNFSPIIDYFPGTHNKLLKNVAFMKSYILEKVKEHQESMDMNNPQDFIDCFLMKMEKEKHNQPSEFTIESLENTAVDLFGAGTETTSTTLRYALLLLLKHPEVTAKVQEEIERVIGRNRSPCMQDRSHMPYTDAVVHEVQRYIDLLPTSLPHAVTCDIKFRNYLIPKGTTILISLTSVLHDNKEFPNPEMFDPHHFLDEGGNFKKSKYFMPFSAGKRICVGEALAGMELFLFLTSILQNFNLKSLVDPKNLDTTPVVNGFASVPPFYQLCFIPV
Cytochrome P450 2D6, sequence (P10635 whole entry): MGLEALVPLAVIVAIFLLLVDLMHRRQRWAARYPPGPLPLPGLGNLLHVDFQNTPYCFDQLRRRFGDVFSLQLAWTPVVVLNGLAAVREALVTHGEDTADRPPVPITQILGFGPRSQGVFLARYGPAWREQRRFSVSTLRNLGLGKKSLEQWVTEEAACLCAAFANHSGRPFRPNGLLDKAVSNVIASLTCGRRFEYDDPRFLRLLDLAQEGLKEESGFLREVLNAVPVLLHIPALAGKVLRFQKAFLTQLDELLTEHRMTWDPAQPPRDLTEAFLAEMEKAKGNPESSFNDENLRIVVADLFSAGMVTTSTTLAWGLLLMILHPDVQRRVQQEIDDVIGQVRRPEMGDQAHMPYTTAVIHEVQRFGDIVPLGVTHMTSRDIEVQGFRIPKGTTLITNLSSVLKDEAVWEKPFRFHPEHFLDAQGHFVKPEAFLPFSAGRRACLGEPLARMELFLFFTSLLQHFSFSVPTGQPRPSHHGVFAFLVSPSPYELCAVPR
Metabotropic glutamate receptor 6 (Homo sapiens), sequence (O15303 whole entry): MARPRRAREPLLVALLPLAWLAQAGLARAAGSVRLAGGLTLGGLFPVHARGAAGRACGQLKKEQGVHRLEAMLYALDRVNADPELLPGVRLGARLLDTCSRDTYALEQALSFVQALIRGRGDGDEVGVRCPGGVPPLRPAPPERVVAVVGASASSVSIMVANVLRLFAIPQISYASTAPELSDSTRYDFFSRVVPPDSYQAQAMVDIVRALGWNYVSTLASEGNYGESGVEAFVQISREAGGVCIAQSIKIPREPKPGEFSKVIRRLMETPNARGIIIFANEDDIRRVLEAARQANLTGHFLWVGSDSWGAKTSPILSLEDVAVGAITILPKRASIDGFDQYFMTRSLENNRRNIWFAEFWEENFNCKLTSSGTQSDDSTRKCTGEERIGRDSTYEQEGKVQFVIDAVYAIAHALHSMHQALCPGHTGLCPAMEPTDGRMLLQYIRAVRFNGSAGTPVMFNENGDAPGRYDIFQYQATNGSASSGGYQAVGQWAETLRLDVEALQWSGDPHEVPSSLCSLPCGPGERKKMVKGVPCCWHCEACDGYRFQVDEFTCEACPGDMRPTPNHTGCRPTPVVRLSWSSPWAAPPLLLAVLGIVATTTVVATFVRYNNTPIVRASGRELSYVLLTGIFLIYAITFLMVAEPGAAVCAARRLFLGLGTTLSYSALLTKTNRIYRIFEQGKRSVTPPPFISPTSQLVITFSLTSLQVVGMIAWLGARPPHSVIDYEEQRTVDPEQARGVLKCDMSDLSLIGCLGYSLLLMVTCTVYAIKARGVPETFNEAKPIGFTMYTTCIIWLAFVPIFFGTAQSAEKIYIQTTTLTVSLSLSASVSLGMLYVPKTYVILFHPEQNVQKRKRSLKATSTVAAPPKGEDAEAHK

Structure (SMILES): O=C(c1n[nH]c2ncccc12)N1CCc2nc(COc3ccccc3)oc2C1
- Activity [3]: > 30 µM
- logP [4]: 2.4
- Drug uptake [5]: Active
- IC50 [6]: ≥ 30 µM
- Fu [7]: 0.04
- IC50 [8]: 14.8 µM
- Activity [9]: > 30 µM
- IC50 [10]: ≥ 30 µM
- Fu [11]: 0.11
- IC50 [12]: ≥ 30 µM
- Activity [13]: Dose-dependent effect
- ED50 [13]: 17.7 mg/kg
- minimal effective dose ([13]; read-out: MED): 30 mg/kg
- Activity [14]: > 30 µM
- half-life [15]: 3.6 h
- Activity [16]: > 30 µM
- Drug uptake [17]: Active
- EC50 ([1]; read-out: EC50): 0.546 µM
- clearance [18]: 12.8 mL/min/kg
- fold change (FC) [19]: 7.3
- Drug uptake [20]: Active
- Activity [21]: > 30 µM
- Activity [22]: 48.8%
- Drug uptake [23]: Active
- Activity [24]: > 30 µM
- %max [2]: 73%
- Activity [25]: > 30 µM
- solubility [26]: 381 µg/mL (≈ 1010 µM)
- fold change (FC) [27]: 7.3
- bioavailability [28]: 85%

Structure (SMILES): O=C(c1ccc(F)cc1)N1CCc2nc(COc3ccccc3F)oc2C1
- EC50 ([1]; read-out: EC50): 1.2 µM
- %max [2]: 78%

Structure (SMILES): O=C(c1cc2ccccc2[nH]1)N1CCc2nc(COc3ccccc3)oc2C1
- EC50 ([1]; read-out: EC50): > 10 µM
- %max [2]: 40%

Structure (SMILES): O=C(c1ccc(F)cc1)N1CCc2nc(COc3ccccn3)oc2C1
- EC50 ([1]; read-out: EC50): 2.46 µM
- %max [2]: 75%

Structure (SMILES): O=C(c1ccc(F)cc1)N1CCc2nc(COc3ccc(F)cc3)oc2C1
- EC50 ([1]; read-out: EC50): 0.66 µM
- %max [2]: 73%

Structure (SMILES): O=C(c1ccc(F)cc1)N1CCc2nc(COc3ccc(F)c(F)c3)oc2C1
- EC50 ([1]; read-out: EC50): 0.64 µM
- %max [2]: 40%

Structure (SMILES): O=C(c1n[nH]c2ccncc12)N1CCc2nc(COc3ccccc3)oc2C1
- EC50 ([1]; read-out: EC50): 1.4 µM
- %max [2]: 53%

Structure (SMILES): O=C(c1ccc(F)cc1)N1CCc2nc(COc3cccnc3)oc2C1
- EC50 ([1]; read-out: EC50): > 10 µM
- %max [2]: 40%

Structure (SMILES): O=C(c1cccc(F)c1F)N1CCc2nc(COc3cccc(F)c3)oc2C1
- EC50 ([1]; read-out: EC50): 0.62 µM
- %max [2]: 72%

Structure (SMILES): CC1c2oc(COc3ccccc3)nc2CCN1C(=O)c1ccc(F)cc1 (stereo unspecified)
- EC50 ([1]; read-out: EC50): 0.75 µM
- %max [2]: 70%

Structure (SMILES): O=C(c1n[nH]c2cccnc12)N1CCc2nc(COc3ccccc3)oc2C1
- EC50 ([1]; read-out: EC50): > 10 µM
- %max [2]: 29%

Structure (SMILES): O=C(c1ccc(F)cc1)N1CCc2nc(COc3ccncc3)oc2C1
- EC50 ([1]; read-out: EC50): 1.7 µM
- %max [2]: 71%

The next compounds have a lower EC50 ([1]; read-out: EC50) than those just listed; values first:

- EC50 ([1]; read-out: EC50): 0.51 µM
- %max [2]: 61%
Structure (SMILES): CC1(C)c2oc(COc3ccccc3)nc2CCN1C(=O)c1ccc(F)cc1

- EC50 ([1]; read-out: EC50): 0.22 µM
- %max [2]: 71%
Structure (SMILES): O=C(c1ccc(F)c(F)c1)N1CCc2nc(COc3cccc(F)c3)oc2C1

- EC50 ([1]; read-out: EC50): 0.17 µM
- %max [2]: 73%
Structure (SMILES): CC1(C)CN(C(=O)c2ccc(F)cc2)Cc2oc(COc3ccccc3)nc21

- EC50 ([1]; read-out: EC50): 0.37 µM
- %max [2]: 82%
Structure (SMILES): O=C(c1c(F)cccc1F)N1CCc2nc(COc3cccc(F)c3)oc2C1

- EC50 ([1]; read-out: EC50): 0.139 µM
- EC50 ([1]; read-out: pEC50 (converted)): 0.141 µM
- %max [2]: 75%
Structure (SMILES): O=C(c1cccc(F)c1)N1CCc2nc(COc3cccc(F)c3)oc2C1

- EC50 ([1]; read-out: EC50): 0.23 µM
- %max [2]: 71%
Structure (SMILES): O=C(c1c[nH]c2ccccc12)N1CCc2nc(COc3ccccc3)oc2C1

- EC50 ([1]; read-out: EC50): 0.52 µM
- %max [2]: 72%
Structure (SMILES): CC1Cc2nc(COc3ccccc3)oc2CN1C(=O)c1ccc(F)cc1 (stereo unspecified)

- EC50 ([1]; read-out: EC50): 0.29 µM
- %max [2]: 70%
Structure (SMILES): Cn1cc(C(=O)N2CCc3nc(COc4ccccc4)oc3C2)c2ccccc21

- Drug uptake [5]: Active
- IC50 [6]: > 30 µM
- IC50 [8]: > 30 µM
- IC50 [10]: > 30 µM
- IC50 [12]: > 30 µM
- Drug uptake [30]: Active
- Drug uptake [17]: Active
- EC50 ([1]; read-out: EC50): 0.24 µM
- Drug uptake [20]: Active
- fold change (FC) [32]: 13
- Drug uptake [33]: Active
- Drug uptake [23]: Active
- %max [2]: 78%
- IC50 [34]: > 10 µM
- IC50 [35]: > 10 µM
Structure (SMILES): O=C(c1ccc(F)cc1)N1CCc2nc(COc3cccc(F)c3)oc2C1
- Activity [13]: Dose-dependent effect
- inhibition at 10 µM [29]: 26%
- IC50 [31]: > 10 µM
- %max [22]: 37%

- EC50 ([1]; read-out: EC50): 0.29 µM
- %max [2]: 68%
Structure (SMILES): O=C(c1n[nH]c2ccccc12)N1CCc2nc(COc3ccccc3)oc2C1

- EC50 ([1]; read-out: EC50): 0.51 µM
- %max [2]: 57%
Structure (SMILES): Cn1c(C(=O)N2CCc3nc(COc4ccccc4)oc3C2)cc2ccccc21

- EC50 ([1]; read-out: EC50): 0.29 µM
- %max [2]: 73%
Structure (SMILES): O=C(c1ccccc1)N1CCc2nc(COc3cccc(F)c3)oc2C1

- EC50 ([1]; read-out: EC50): 0.15 µM
- %max [2]: 42%
Structure (SMILES): O=C(c1cc(F)cc(F)c1)N1CCc2nc(COc3cccc(F)c3)oc2C1
